≈ marks a conversion by molar mass, not a printed value. Where two headings read alike, the source gives them in different places.
System: Spodoptera littoralis
Assay: Insecticidal bioassay screening (castor leaf dip), laboratory strain of cotton leafworm
Assay type: in vivo
Settings: for Toxicity index %: 72 hrs, Diflubenzuron's LC50 / the compound's LC50 × 100; for LC50: Spodoptera littoralis, foliar, 72 h
Method: Five concentrations (200, 100, 50, 25, 12.5 ppm) were designed for this synthetic compound and the reference Diflubenzuron compound as the dynamic ingredients based on mg/L via diluting the commercial formulation.
[…] Larvae of the second and fourth instars of each checked strain are prepared with treated leaves in gauze-covered glass containers for 72 hrs. An untreated control is made in which leaves are dipped in triton x-100 and distilled water only. Then the preserved leaves were removed & fresh, untreated leaves were provided for 72 hours. Three replicates (10 larvae each) were checked for each concentration. Daily inspection was carried out for all treatments and mortality percentages were recorded 3 days (72 hours) after treatment. The average mortality percentage was corrected employing Abbott's formula. The corrected mortality rate for each of the previously synthesized compounds is statistically calculated according to Finney (1970). Through this rate, the corresponding concentration test lines (LDP lines) are assessed.

[1] = 2nd instar larvae, laboratory strain, after 72 hrs of treatment
[2] = 4th instar larvae, laboratory strain, after 72 hrs of treatment
[3] = read-out: LC50 (mg/L) at 95%, 2nd instar larvae, laboratory strain, after 72 hrs of treatment
[4] = read-out: LC50 (mg/L) at 95%, 4th instar larvae, laboratory strain, after 72 hrs of treatment

SMILES | Toxicity index % (2nd instar larvae) | LC50 (mg/L) at 95% [1] | LC90 (mg/L) at 95% [1] | Toxicity index % (4th instar larvae) | LC90 (mg/L) at 95% [2] | LC50 [3] | LC50 [4]
O=C(NC(=S)Nc1ncccn1)c1cc([N+](=O)[O-])cc([N+](=O)[O-])c1 [Compound 1, 3,5-dinitro-N-(pyrimidin-2-ylcarbamothioyl)benzamide] | 23.7% | about 190.0 mg/L | 1713.2 mg/L (≈ 4920 µM) | 33.4% | 4020.4 mg/L (≈ 11500 µM) | 190 mg/L (≈ 546 µM) | ~430 mg/L (≈ 1240 µM)
O=C(NC(=O)c1c(F)cccc1F)Nc1ccc(Cl)cc1 [Diflubenzuron, reference compound] | 100% | – | 520.0 mg/L (≈ 1670 µM) | 100% | 1540.5 mg/L (≈ 4960 µM) | 45.2 mg/L (≈ 145 µM) | 144 mg/L (≈ 464 µM)

Source: patent US11974571B1, “3-5-dinitro-N-(pyrimidin-2-ylcarbamothioyl)benzamide as an eco-friendly insecticidal agent against Spodoptera littoralis (boisd.)” (KING FAISAL UNIVERSITY, priority 2023, dated 2024)
